Data from PubChem BioAssay (NCI).
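Following 48 hours of exposure in 96-well plates, responses at five concentrations were used to interpolate endpoints linearly. The concentration for full growth arrest is given as TGI.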

Experiments:
Test in all cases: NCI tumour cell line growth inhibition, 48 h
SF-295 CNS = tested on: SF-295 CNS
MALME-3M melanoma = tested on: MALME-3M melanoma
SF-268 CNS = tested on: SF-268 CNS
RPMI-8226 leukemia = tested on: RPMI-8226 leukemia
NCI-H23 lung = tested on: NCI-H23 lung
NCI-H226 lung = tested on: NCI-H226 lung
LXFL 529 NSCLC = tested on: LXFL 529 NSCLC
SNB-78 CNS = tested on: SNB-78 CNS
SN12C renal = tested on: SN12C renal
COLO 205 colon = tested on: COLO 205 colon
M19-MEL melanoma = tested on: M19-MEL melanoma
HOP-62 NSCLC = tested on: HOP-62 NSCLC
ACHN renal = tested on: ACHN renal
HCT-15 colon = tested on: HCT-15 colon
OVCAR-8 ovarian = tested on: OVCAR-8 ovarian
SF-539 CNS = tested on: SF-539 CNS
786-0 renal = tested on: 786-0 renal
SNB-19 CNS = tested on: SNB-19 CNS
A549 NSCLC = tested on: A549 NSCLC
HT29 colon = tested on: HT29 colon
TK-10 renal = tested on: TK-10 renal
IGROV1 ovarian = tested on: IGROV1 ovarian
OVCAR-3 ovarian = tested on: OVCAR-3 ovarian
KM20L2 colon = tested on: KM20L2 colon
UO-31 renal = tested on: UO-31 renal
UACC-62 melanoma = tested on: UACC-62 melanoma
DLD-1 colon = tested on: DLD-1 colon
EKVX NSCLC = tested on: EKVX NSCLC
DMS 114 small cell lung = tested on: DMS 114 small cell lung
SK-OV-3 ovarian = tested on: SK-OV-3 ovarian
RXF 393 renal = tested on: RXF 393 renal
HCC-2998 colon = tested on: HCC-2998 colon
LOX IMVI melanoma = tested on: LOX IMVI melanoma
OVCAR-5 ovarian = tested on: OVCAR-5 ovarian
M14 melanoma = tested on: M14 melanoma
SW-620 colon = tested on: SW-620 colon
UACC-257 melanoma = tested on: UACC-257 melanoma
HOP-18 NSCLC = tested on: HOP-18 NSCLC
XF 498 CNS = tested on: XF 498 CNS
SK-MEL-28 melanoma = tested on: SK-MEL-28 melanoma
SK-MEL-5 melanoma = tested on: SK-MEL-5 melanoma
HCT-116 colon = tested on: HCT-116 colon
SR leukemia = tested on: SR leukemia
KM12 colon = tested on: KM12 colon
SNB-75 CNS = tested on: SNB-75 CNS
HOP-92 NSCLC = tested on: HOP-92 NSCLC
A498 renal = tested on: A498 renal
MOLT-4 leukemia = tested on: MOLT-4 leukemia
CCRF-CEM leukemia = tested on: CCRF-CEM leukemia
DMS 273 small cell lung = tested on: DMS 273 small cell lung
K-562 leukemia = tested on: K-562 leukemia
HL-60(TB) leukemia = tested on: HL-60(TB) leukemia
U251 CNS = tested on: U251 CNS
OVCAR-4 ovarian = tested on: OVCAR-4 ovarian
RXF-631 renal = tested on: RXF-631 renal
SK-MEL-2 melanoma = tested on: SK-MEL-2 melanoma
NCI-H460 lung = tested on: NCI-H460 lung
CAKI-1 renal = tested on: CAKI-1 renal
NCI-H522 lung = tested on: NCI-H522 lung

Measured: TGI

N#CC12Cc3ccc4c(c3-c3cccc(c31)CCN2C(=O)c1ccccc1)OCO4 (configuration not stated)
not listed: OVCAR-4 ovarian | RXF-631 renal | SK-MEL-2 melanoma | NCI-H460 lung | CAKI-1 renal | NCI-H522 lung
> 100 µM: all other assays above

COC1=CC(=O)c2ccccc2C1(C)C1=NC(C)(C)CO1 (configuration not stated)
not listed: SNB-78 CNS | HCC-2998 colon | LOX IMVI melanoma | OVCAR-5 ovarian | A498 renal
> 100 µM: all other assays above
